Data on three compounds can be found in article PMC4323687 (Neurobiology of disease, 2014).

The target in series [1] is Aβ42 seeding-mediated fibril growth (Homo sapiens, UniProt P05067). In words: Aβ42 seeding polymerization assay. The class given is biochemical. Conditions: for fibril growth and number of amyloid fibrils by TEM: 3 hours incubation of seeds and monomers with compound; for inhibition at 10 µM: read-out: inhibition of seeded fibril growth (seeding capacity of short fibrils).

For series [2], the system named is mThy1-hAPP751 APPtg mouse model of AD. Description: Immunohistochemistry of synaptophysin, MAP2, NeuN and GFAP in APPtg mouse brain. The class given is in vivo. The settings on record: for synapse loss (SYN-immunoreactivity) in the frontal cortex / synapse loss (SYN-immunoreactivity) in the hippocampus: vs APPtg mice treated with PBS.
Series [3] shares this test system. Description: Immunoblot of Aβ42 species in brain membrane fraction of APPtg mice. Format: in vivo. The settings on record: vs vehicle-treated APPtg mice. For orientation: In western blotting, separated proteins are transferred to a membrane and probed.
Series [4] can be described thus: Pharmacokinetics and brain distribution after single administration. The class given is in vivo, C57/BL6 mice.
The test system of series [5] is mThy1-hAPP751 APPtg mouse model of AD. Description: Aβ42 ELISA in APPtg mouse brain. The class given is in vivo. The settings on record: vs vehicle-treated APPtg mice.
The test system is the same in series [6]. In words: Aβ immunostaining of plaques in frontal cortex and hippocampus of APPtg mice. The class given is in vivo. Conditions: same treatments as E16.
The test system is the same in series [7]. Description: Electron microscopy of neuropil and amyloid in APPtg mouse brain. The class given is in vivo. Conditions: same treatments as E16.
Series [8] concerns the target monomeric Aβ42 (Homo sapiens, UniProt P05067). Description: Fibrillization of monomeric Aβ42. Format: biochemical.
Series [9] has as its system Slack (Slo2.2) channels. Conditions: ref Yang et al., 2006; cited from earlier work.
The test system of series [10] is Aβ. Conditions: ref Colombo et al., 2009; cited from earlier work.
Series [11] concerns primary cortical neurons. Conditions: 0.5, 5, 10, 20 and 50 μM, 24 hours, MTT.
Series [12] addresses protofibrillar Aβ42 (Homo sapiens, UniProt P05067). In words: Conversion of Aβ42 protofibrils into mature fibrils. The class given is biochemical. Conditions: 48 hours, ThT.

Sequence of monomeric Aβ42 (P05067 672-713 limits assumed): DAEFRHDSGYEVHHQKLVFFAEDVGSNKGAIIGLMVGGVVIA
Sequence of Aβ42 seeding-mediated fibril growth (P05067 672-713 limits assumed): as above
Sequence of protofibrillar Aβ42 (P05067 672-713 limits assumed): as above

The IC50 is the concentration that inhibits the measured activity by half. Low values mean greater potency in that assay, high ones weaker potency in that assay. As a reminder, the inhibition is how much of the control response was suppressed. For orientation: half-life means the time in which the quantity being followed falls by half. A higher half-life goes with slow loss. Consider `Oc1c(Cl)cc(Cl)cc1Sc1cc(Cl)cc(Cl)c1O` [bithionol], for which, in [1], the IC50 came to 5.33 µM; the “fibril growth and number of amyloid fibrils by TEM” value (“fibril growth and number” for short) is “significant inhibition of fibril growth”; the inhibition at 10 µM fell in the range of 60 to 80%. In addition, in [2], the “synapse loss (SYN-immunoreactivity) in the frontal cortex” value is given as “significantly reversed” and the “synapse loss (SYN-immunoreactivity) in the hippocampus” value is “significantly reversed”. Besides, in [2] (vs vehicle-treated APPtg mice), the “GFAP immunoreactivity (astroglial reactivity) in the frontal cortex” value is “strong and significant reduction”; the “MAP2 immunoreactivity (neuronal damage) in the frontal cortex” value is recorded as “reversion of the damage”; the “MAP2 immunoreactivity (neuronal damage) in the hippocampus” value was “reversion of the damage”; the “NeuN immunoreactivity in the frontal cortex” value is recorded as “increase”. Moreover, the “levels of Aβ42 monomers and intermediate species (immunoblot, 82E1)” value (“levels … (immunoblot, 82E1)” for short) in series [3] is “significant reduction”. In series [4] (C57/BL6, mouse, brain, iv, 10 mg/kg), this compound had a half-life of 1.77 h. For the same compound, the half-life in series [4] (C57/BL6, mouse, plasma, iv, 10 mg/kg) was 7.62 h. In addition, in series [5], the “Aβ42 levels by ELISA, guanidine-HCl brain extractions” value is “significant and dramatic reduction”; the “Aβ42 levels by ELISA, membrane fractions” value was “significant and dramatic reduction”. For the same compound, the “Aβ42-immunoreactivity in the hippocampus (% area of neuropil) vs vehicle APPtg” value in series [6] is on record as “significant decrease”. Further, in series [7], the “amyloid fibrils in neuropil by electron microscopy” value was “only few fibrillar aggregates” and the “status of axons/neurites in neuropil by electron microscopy” value is on record as “axons were comparable to controls”. Also, in series [8], the IC50 is 5.1 µM. For the same compound, the “activation of Slack channels” value in series [9] is “robust activator of Slack channels”.

For `Oc1c(Cl)cc(Cl)c(Cl)c1Cc1c(O)c(Cl)cc(Cl)c1Cl` [hexachlorophene], in series [1], half-maximal inhibition (IC50) was put at 5.9 µM; the “fibril growth and number” value is “significant inhibition of fibril growth”; the inhibition at 10 µM lay in the range of 60 to 80%. The “levels … (immunoblot, 82E1)” value in series [3] is reported as “comparable to that observed in the vehicle-treated APPtg mice”. Also, the Kp in [4] (C57/BL6, mouse, in vivo, iv, 10 mg/kg) is 0.5. Besides, the brain penetration in series [4] (single IV administration 10 mg/kg) was 50%. Besides, in [5], the “Aβ42 levels by ELISA, guanidine-HCl brain extractions” value is “did not significantly affect” and the “Aβ42 levels by ELISA, membrane fractions” value is “did not significantly affect”. For the same compound, the midpoint of inhibition in [8], the IC50, lay at 5 µM.

Consider `O=C1c2c(O)ccc(O)c2C(=O)c2c(NCCNCCO)ccc(NCCNCCO)c21` [mitoxantrone], for which, in series [1], the IC50 came to 1.7 µM; the “fibril growth and number” value is recorded as “significant inhibition of fibril growth”; the inhibition at 10 µM was 80 to 90%. For the same compound, in series [10], the “Aβ oligomerization and fibril formation” value is “can block Aβ oligomerization and fibril formation”. For the same compound, in series [2], the “synapse loss (SYN-immunoreactivity) in the frontal cortex” value is reported as “significantly reversed” and the “synapse loss (SYN-immunoreactivity) in the hippocampus” value is “significantly reversed”. Moreover, in series [2] (vs vehicle-treated APPtg mice), the “MAP2 immunoreactivity (neuronal damage) in the frontal cortex” value is given as “reversion of the damage”, the “MAP2 immunoreactivity (neuronal damage) in the hippocampus” value is recorded as “reversion of the damage” and the “NeuN immunoreactivity in the frontal cortex” value was “increase”. Moreover, the “levels … (immunoblot, 82E1)” value in series [3] was “significant reduction”. For the same compound, the “effect of compound alone on cellular viability of neurons” value in series [11] is reported as “significant reduction of the cellular viability only at high concentrations”. Moreover, in [5], the “Aβ42 levels by ELISA, guanidine-HCl brain extractions” value was “significant and dramatic reduction”; the “Aβ42 levels by ELISA, membrane fractions” value was “significant and dramatic reduction”. Besides, in series [12], the “inhibition of protofibril to fibril conversion” value is given as greater than 80%. Moreover, in [7], the “amyloid fibrils in neuropil by electron microscopy” value is “only few fibrillar aggregates” and the “status of axons/neurites in neuropil by electron microscopy” value was “axons were comparable to controls”. 2.5 µM corresponded to half-maximal inhibition in series [8] (IC50).
